Earlier results in patent US7163959B2, “Prostagladin derivatives for the treatment of glaucoma or ocular hypertension” (priority 1990, dated 2007).

Key:
monkey = settings: compounds or their esters, Bito et al, 1989; cited from earlier work
man = settings: clinical studies, Flach and Eliason (1988); cited from earlier work

Row | SMILES | IOP effect, in words (monkey) | IOP effect, in words (man)
1 | CCCCC[C@H](O)/C=C/[C@H]1C=CC(=O)[C@@H]1C/C=C\CCCC(=O)O [PGA2] | lower IOP | –
2 | CCCCC[C@H](O)/C=C/[C@H]1[C@H](O)CC(=O)[C@@H]1C/C=C\CCCC(=O)O [PGE2] | lower IOP | IOP-lowering effect
